Assay results as given in PubChem BioAssay AID272 (DTP/NCI, 2004).
“And” between values parts separate entries of the source, which are not always exact repeats. Equal values may be shown once. Results filed as inconclusive are left out.

Test system: Lewis lung carcinoma i.m., BDF1 mice, T/C %
Experiment: NCI In Vivo Anticancer Drug Screen. Data for tumor model Lewis Lung Carcinoma (intramuscular) in B6D2F1 (BDF1) mice
How it was run: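 Antitumour activity is assessed in transplanted-tumour mice. Endpoint is survival or tumour size, normalised to vehicle-dosed controls (T/C).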

## NC(=S)N/N=C/c1ccc(O)cn1
endpoint: mean tumor weight, dose: 5.0 mg/kg/injection, schedule: Q03HX024 (ip), vehicle: other, higher = larger tumour
  T/C: 60 % of control
endpoint: mean tumor weight, dose: 10.0 mg/kg/injection, schedule: Q03HX024 (ip), vehicle: other, higher = larger tumour
  T/C: 46 % of control
endpoint: mean tumor weight, dose: 50.0 mg/kg/injection, schedule: Q01DX009 (ip), vehicle: other, higher = larger tumour
  T/C: 15 % of control
endpoint: mean tumor weight, dose: 50.0 mg/kg/injection, schedule: Q01DX011 (ip), vehicle: other, higher = larger tumour
  T/C: 18 % of control and 40 % of control
endpoint: mean tumor weight, dose: 100.0 mg/kg/injection, schedule: Q01DX011 (ip), vehicle: other, higher = larger tumour
  T/C: 17 % of control
endpoint: mean tumor weight, dose: 200.0 mg/kg/injection, schedule: Q04DX003 (ip), vehicle: other, higher = larger tumour
  T/C: 47 % of control
endpoint: mean tumor weight, dose: 400.0 mg/kg/injection, schedule: Q04DX003 (ip), vehicle: other, higher = larger tumour
  T/C: 28 % of control
endpoint: median survival time, dose: 5.0 mg/kg/injection, schedule: Q03HX024 (ip), vehicle: other, higher = longer survival
  T/C: 108 % of control
endpoint: median survival time, dose: 10.0 mg/kg/injection, schedule: Q03HX024 (ip), vehicle: other, higher = longer survival
  T/C: 112 % of control
endpoint: median survival time, dose: 50.0 mg/kg/injection, schedule: Q01DX011 (ip), vehicle: other, higher = longer survival
  T/C: 113 % of control
endpoint: median survival time, dose: 100.0 mg/kg/injection, schedule: Q01DX009 (ip), vehicle: other, higher = longer survival
  T/C: 170 % of control
endpoint: median survival time, dose: 100.0 mg/kg/injection, schedule: Q01DX011 (ip), vehicle: other, higher = longer survival
  T/C: 103 % of control
endpoint: median survival time, dose: 200.0 mg/kg/injection, schedule: Q04DX003 (ip), vehicle: other, higher = longer survival
  T/C: 120 % of control

## O=C(CBr)c1ccc(I)cc1
endpoint: median survival time, dose: 1.25 mg/kg/injection, schedule: Q01DX011 (ip), vehicle: saline with Tween-80, higher = longer survival
  T/C: 102 % of control
endpoint: median survival time, dose: 2.5 mg/kg/injection, schedule: Q01DX011 (ip), vehicle: saline with Tween-80, higher = longer survival
  T/C: 86 % of control
endpoint: median survival time, dose: 5.0 mg/kg/injection, schedule: Q01DX011 (ip), vehicle: saline with Tween-80, higher = longer survival
  T/C: 89 % of control
endpoint: median survival time, dose: 10.0 mg/kg/injection, schedule: Q01DX011 (ip), vehicle: saline with Tween-80, higher = longer survival
  T/C: 104 % of control

## CC(SC(C)C(=O)NN)C(=O)NN (stereo unspecified)
endpoint: mean tumor weight (est.), dose: 138.75 mg/kg/injection, schedule: Q01DX011 (ip), vehicle: saline, higher = larger tumour
  T/C: 80 % of control
endpoint: mean tumor weight (est.), dose: 277.5 mg/kg/injection, schedule: Q01DX011 (ip), vehicle: saline, higher = larger tumour
  T/C: 87 % of control
endpoint: mean tumor weight (est.), dose: 555.0 mg/kg/injection, schedule: Q01DX011 (ip), vehicle: saline, higher = larger tumour
  T/C: 76 % of control
endpoint: median survival time, dose: 138.75 mg/kg/injection, schedule: Q01DX011 (ip), vehicle: saline, higher = longer survival
  T/C: 90 % of control
endpoint: median survival time, dose: 277.5 mg/kg/injection, schedule: Q01DX011 (ip), vehicle: saline, higher = longer survival
  T/C: 96 % of control
endpoint: median survival time, dose: 555.0 mg/kg/injection, schedule: Q01DX011 (ip), vehicle: saline, higher = longer survival
  T/C: 90 % of control

## N=c1ccn2c(n1)OC1C(OP(=O)(O)O)C(CO)OC12 (stereo unspecified)
endpoint: mean tumor weight (est.), dose: 12.5 mg/kg/injection, schedule: Q01DX011 (oral), vehicle: water, higher = larger tumour
  T/C: 79 % of control
endpoint: mean tumor weight (est.), dose: 25.0 mg/kg/injection, schedule: Q01DX011 (oral), vehicle: water, higher = larger tumour
  T/C: 71 % of control
endpoint: mean tumor weight (est.), dose: 50.0 mg/kg/injection, schedule: Q01DX011 (oral), vehicle: water, higher = larger tumour
  T/C: 13 % of control
endpoint: mean tumor weight (est.), dose: 100.0 mg/kg/injection, schedule: Q01DX011 (oral), vehicle: water, higher = larger tumour
  T/C: 12 % of control
endpoint: mean tumor weight (est.), dose: 200.0 mg/kg/injection, schedule: Q01DX011 (oral), vehicle: water, higher = larger tumour
  T/C: 12 % of control
endpoint: median survival time, dose: 12.5 mg/kg/injection, schedule: Q01DX011 (oral), vehicle: water, higher = longer survival
  T/C: 109 % of control
endpoint: median survival time, dose: 25.0 mg/kg/injection, schedule: Q01DX011 (oral), vehicle: water, higher = longer survival
  T/C: 105 % of control
endpoint: median survival time, dose: 50.0 mg/kg/injection, schedule: Q01DX011 (oral), vehicle: water, higher = longer survival
  T/C: 118 % of control
endpoint: median survival time, dose: 100.0 mg/kg/injection, schedule: Q01DX011 (oral), vehicle: water, higher = longer survival
  T/C: 120 % of control
endpoint: median survival time, dose: 200.0 mg/kg/injection, schedule: Q01DX011 (oral), vehicle: water, higher = longer survival
  T/C: 116 % of control

## O=C(CCCl)N1CCN(C(=O)CCCl)c2ccccc21
endpoint: mean tumor weight (est.), dose: 150.0 mg/kg/injection, schedule: Q01DX011 (ip), vehicle: saline with Tween-80, higher = larger tumour
  T/C: 83 % of control
endpoint: mean tumor weight (est.), dose: 300.0 mg/kg/injection, schedule: Q01DX011 (ip), vehicle: saline with Tween-80, higher = larger tumour
  T/C: 82 % of control
endpoint: median survival time, dose: 150.0 mg/kg/injection, schedule: Q01DX011 (ip), vehicle: saline with Tween-80, higher = longer survival
  T/C: 108 % of control
endpoint: median survival time, dose: 300.0 mg/kg/injection, schedule: Q01DX011 (ip), vehicle: saline with Tween-80, higher = longer survival
  T/C: 93 % of control

## COC1N(C2CC(O)C(CO)O2)C(=O)NC(=O)C1(F)Br (stereo unspecified)
endpoint: mean tumor weight (est.), dose: 5.0 mg/kg/injection, schedule: Q01DX011 (ip), vehicle: saline, higher = larger tumour
  T/C: 87 % of control
endpoint: mean tumor weight (est.), dose: 10.0 mg/kg/injection, schedule: Q01DX011 (ip), vehicle: saline, higher = larger tumour
  T/C: 29 % of control
endpoint: mean tumor weight (est.), dose: 20.0 mg/kg/injection, schedule: Q01DX011 (ip), vehicle: saline, higher = larger tumour
  T/C: 7 % of control
endpoint: median survival time, dose: 5.0 mg/kg/injection, schedule: Q01DX011 (ip), vehicle: saline, higher = longer survival
  T/C: 103 % of control
